Data reported in the supplement of paper PMC11208160.

Assay: recombinant barcode read abundance after kanamycin selection (control-corrected) (log10(CPM+1)); higher = more efficient recombination; sequences stand for … in AGTGCAGAGAAAATCGGCCAGTTTTCTCTGCCTGCAGTCCGCATGCCGT…AGATTTATGCAGCGGACTGCCTTTCTCCCAAAGTGATAAACCGGACAGTATCATGGACCGGTTTTCCCGGTAATCCGTATTTGCAAGGTTGGTTTCACT; site = the 11-nt target
In short: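 Reported as log10(CPM+1), each value stands for recombination efficiency. That efficiency is the averaged, control-corrected counts per million of barcodes found at recombinant junctions. Cells from a pooled E. coli library pairing targets with IS621 bridge RNA target-binding loops were plated twice on chloramphenicol/ampicillin LB agar (control) and twice on chloramphenicol/ampicillin/kanamycin with 0.1 mM IPTG.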
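Further: IS621 recombinase and bridge RNA in Escherichia coli cells.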

Sequence | recombinant barcode read abundance (log10)
GTGTCTCCTTGGGTTCTAACCTGTTGCCG (site GTCTCTCCTCG) | 0.0207
GTGTCTCCTTGGGTTCTAACCTGTTGCCG (site GTGTCTCCTCG) | 0.0325
GTGTGTACTTGGGTTCTAACCTGTTGCCA (site GAGTGAACTTG) | 0.0252
GTGTGTACTTGGGTTCTAACCTGTTGCCA (site GTGTGTACTTG) | 0.488
GTGTGTCCTTGGGTTCTAACCTGTTGCAT (site GTGTATCCTAT) | 0.381
GTGTGTCCTTGGGTTCTAACCTGTTGCAT (site GTGTCTCCTAT) | 0.122
GTGTGTCCTTGGGTTCTAACCTGTTGCAT (site GTGTGTCCTAT) | 1.7
GTGTGTCCTTGGGTTCTAACCTGTTGCAT (site GTGTTTCCTAT) | 0.052
GTGTTTCCTTGGGTTCTAACCTGTTGCAT (site GTGTATCCTAT) | 0.654
GTGTTTCCTTGGGTTCTAACCTGTTGCAT (site GTGTCTCCTAT) | 0.081
GTGTTTCCTTGGGTTCTAACCTGTTGCAT (site GTGTGTCCTAT) | 0.0468
GTGTTTCCTTGGGTTCTAACCTGTTGCAT (site GTGTTTCCTAT) | 0.832
GTTAACTCTTGGGTTCTAACCTGTTGCCT (site GTAAACTCTAG) | 0.2
GTTAACTCTTGGGTTCTAACCTGTTGCCT (site GTCAACTCTAG) | 0.51
GTTAACTCTTGGGTTCTAACCTGTTGCCT (site GTGAACTCTAG) | 0.34
GTTAACTCTTGGGTTCTAACCTGTTGCCT (site GTTAACTCTAG) | 0.877
GTTACACCTTGGGTTCTAACCTGTTGCCT (site GTTACACCTAG) | 0.848
GTTACACCTTGGGTTCTAACCTGTTGCCT (site GTTTCACCTAG) | 0.187
GTTACTACTTGGGTTCTAACCTGTTGCCG (site GTTACTACTCG) | 0.13
GTTACTACTTGGGTTCTAACCTGTTGCCG (site TGGTACCCTTA) | 0.0233
GTTCAGACTTGGGTTCTAACCTGTTGCTT (site CCAAGTCCTTG) | 0.284
GTTCAGACTTGGGTTCTAACCTGTTGCTT (site GTTCAGACTAA) | 1.06

Sequence | recombinant barcode read abundance (log10)
GTTCATCCTTGGGTTCTAACCTGTTGCCT (site GATCATCCTAG) | 0.48
GTTCATCCTTGGGTTCTAACCTGTTGCCT (site GTTCATCCTAG) | 1.02
GTTCGTCCTTGGGTTCTAACCTGTTGCCA (site CCAATGTCTAC) | 0.104
GTTCGTCCTTGGGTTCTAACCTGTTGCCA (site GTTCGTCCTTG) | 0.0879
GTTGGGACTTGGGTTCTAACCTGTTGCCT (site GTTGGAACTAC) | 0.109
GTTGGGACTTGGGTTCTAACCTGTTGCCT (site GTTGGGACTAG) | 2
GTTGGGGCTTGGGTTCTAACCTGTTGCGG (site CTTGGGCCTCC) | 0.019
GTTGGGGCTTGGGTTCTAACCTGTTGCGG (site GTTGGGGCTCC) | 2
GTTGGTCCTTGGGTTCTAACCTGTTGCCT (site GTGGTTCCTAG) | 0.114
GTTGGTCCTTGGGTTCTAACCTGTTGCCT (site GTTGGTCCTAG) | 1.75
GTTTAATCTTGGGTTCTAACCTGTTGCCT (site GTTTAATCTAG) | 0.216
GTTTAATCTTGGGTTCTAACCTGTTGCCT (site GTTTAGTCTAG) | 0.233
GTTTATACTTGGGTTCTAACCTGTTGCCA (site AGAGTAGCTGT) | 0.0898
GTTTATACTTGGGTTCTAACCTGTTGCCA (site GTTTATACTTG) | 0.41
GTTTCACCTTGGGTTCTAACCTGTTGCCT (site GTTACACCTAG) | 0.128
GTTTCACCTTGGGTTCTAACCTGTTGCCT (site GTTTCACCTAG) | 0.491
GTTTCGACTTGGGTTCTAACCTGTTGCCT (site GTTTCGACTAG) | 0.128
GTTTCGACTTGGGTTCTAACCTGTTGCCT (site GTTTCGTCTAG) | 0.173
GTTTCGACTTGGGTTCTAACCTGTTGCTA (site GTTTCGACTTA) | 0.238
GTTTCGACTTGGGTTCTAACCTGTTGCTA (site TCGGATGCTAT) | 0.188
GTTTCGGCTTGGGTTCTAACCTGTTGCCT (site GTTACGGCTAG) | 0.041
GTTTCGGCTTGGGTTCTAACCTGTTGCCT (site GTTCCGGCTAG) | 0.357

Sequence | recombinant barcode read abundance (log10)
GTTTCGGCTTGGGTTCTAACCTGTTGCCT (site GTTGCGGCTAG) | 0.101
GTTTCGGCTTGGGTTCTAACCTGTTGCCT (site GTTTCGGCTAG) | 0.342
GTTTGGCCTTGGGTTCTAACCTGTTGCTT (site GTTTGACCTAA) | 0
GTTTGGCCTTGGGTTCTAACCTGTTGCTT (site GTTTGCCCTAA) | 0.154
GTTTGGCCTTGGGTTCTAACCTGTTGCTT (site GTTTGGCCTAA) | 0.541
GTTTGGCCTTGGGTTCTAACCTGTTGCTT (site GTTTGTCCTAA) | 0.167
TAAAACCCTTGGGTTCTAACCTGTTGCAT (site CCGCGGACTTA) | 0.15
TAAAACCCTTGGGTTCTAACCTGTTGCAT (site TAAAACCCTAT) | 0.713
TAAAAGGCTTGGGTTCTAACCTGTTGCCT (site TAAAAGACTAG) | 0.102
TAAAAGGCTTGGGTTCTAACCTGTTGCCT (site TAAAAGCCTAG) | 0.0288
TAAAAGGCTTGGGTTCTAACCTGTTGCCT (site TAAAAGGCTAG) | 0.0132
TAAAAGGCTTGGGTTCTAACCTGTTGCCT (site TAAAAGTCTAG) | 0.142
TAAAATACTTGGGTTCTAACCTGTTGCCT (site TAAAATACTAG) | 0.1
TAAAATACTTGGGTTCTAACCTGTTGCCT (site TAGATTACTAG) | 0.272
TAACACTCTTGGGTTCTAACCTGTTGCTT (site GAACACTCTCA) | 0.105
TAACACTCTTGGGTTCTAACCTGTTGCTT (site TAACACTCTAA) | 1.51
TAACGTACTTGGGTTCTAACCTGTTGCAT (site TAACATACTAT) | 0.0677
TAACGTACTTGGGTTCTAACCTGTTGCAT (site TAACCTACTAT) | 0.135
TAACGTACTTGGGTTCTAACCTGTTGCAT (site TAACGTACTAT) | 0.696
TAACGTACTTGGGTTCTAACCTGTTGCAT (site TAACTTACTAT) | 0.103
TAACTAGCTTGGGTTCTAACCTGTTGCTA (site GTGTATACTAT) | 0.212
TAACTAGCTTGGGTTCTAACCTGTTGCTA (site TAACTAGCTTA) | 0.141
